Experimental findings from ChEMBL document CHEMBL1138016, “Azaadamantane benzamide 5-HT4 agonists: gastrointestinal prokinetic SC-54750” (Bioorg Med Chem Lett, 2004) are described below.

The target of experiment [1] is Adrenergic receptor beta (Homo sapiens, UniProt P08588+P07550+P13945). Kind of experiment: Concentration required for inhibition of beta adrenergic receptor. Format: protein assay.
Experiment [2] can be described thus: Concentration required for inhibition of Dopamine receptor D2 using [3H]spiperone as the radioligand.
For experiment [3], the target named is T1, Adrenergic receptor alpha-2 (Homo sapiens, UniProt P08913+P18825+P18089).
T1 sequence (P08913 whole entry): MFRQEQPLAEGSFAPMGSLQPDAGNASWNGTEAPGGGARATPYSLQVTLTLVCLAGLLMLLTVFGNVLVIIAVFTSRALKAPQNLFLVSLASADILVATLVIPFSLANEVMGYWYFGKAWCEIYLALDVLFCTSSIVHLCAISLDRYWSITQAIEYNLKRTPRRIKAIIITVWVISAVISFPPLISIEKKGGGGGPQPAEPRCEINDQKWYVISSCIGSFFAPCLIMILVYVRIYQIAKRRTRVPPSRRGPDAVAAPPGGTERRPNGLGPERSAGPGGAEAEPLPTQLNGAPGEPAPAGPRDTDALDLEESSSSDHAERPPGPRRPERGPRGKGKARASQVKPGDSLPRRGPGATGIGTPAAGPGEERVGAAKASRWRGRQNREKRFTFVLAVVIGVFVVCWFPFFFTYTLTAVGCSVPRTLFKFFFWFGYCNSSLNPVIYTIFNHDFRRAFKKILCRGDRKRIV
T1 sequence (P18825 whole entry): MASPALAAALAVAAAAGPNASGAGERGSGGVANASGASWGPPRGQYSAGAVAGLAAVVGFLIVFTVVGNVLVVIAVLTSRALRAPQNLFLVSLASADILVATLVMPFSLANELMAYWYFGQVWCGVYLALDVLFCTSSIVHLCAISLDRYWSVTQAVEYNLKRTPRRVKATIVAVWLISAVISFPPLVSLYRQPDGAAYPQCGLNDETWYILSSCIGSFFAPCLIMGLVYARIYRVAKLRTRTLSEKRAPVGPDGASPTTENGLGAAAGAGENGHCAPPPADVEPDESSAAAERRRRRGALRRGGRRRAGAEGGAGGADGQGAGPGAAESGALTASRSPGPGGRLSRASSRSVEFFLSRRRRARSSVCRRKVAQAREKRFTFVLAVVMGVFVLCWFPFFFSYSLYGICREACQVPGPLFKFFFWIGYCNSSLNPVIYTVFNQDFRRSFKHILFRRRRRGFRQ
T1 sequence (P18089 whole entry): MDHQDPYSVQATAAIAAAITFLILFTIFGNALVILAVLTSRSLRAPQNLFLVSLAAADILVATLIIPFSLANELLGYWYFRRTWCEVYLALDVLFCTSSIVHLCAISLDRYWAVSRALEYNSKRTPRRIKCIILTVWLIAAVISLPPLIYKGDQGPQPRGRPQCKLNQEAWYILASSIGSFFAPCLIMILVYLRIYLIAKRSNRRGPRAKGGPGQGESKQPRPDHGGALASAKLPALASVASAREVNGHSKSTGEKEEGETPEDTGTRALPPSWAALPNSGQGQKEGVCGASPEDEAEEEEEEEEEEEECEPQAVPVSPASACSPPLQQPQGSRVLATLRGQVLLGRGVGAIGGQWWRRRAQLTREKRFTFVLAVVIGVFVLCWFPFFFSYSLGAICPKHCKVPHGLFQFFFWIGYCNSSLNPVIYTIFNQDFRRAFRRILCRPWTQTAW
Kind of experiment: Concentration required for inhibition of alpha-2 adrenergic receptor. Type of experiment: protein assay.

Experiment [4] in a line: Concentration required for inhibition of Dopamine receptor D1 using [3H]SCH-23,390 as the radioligand.
Experiment [5] is described as follows: Concentration required for inhibition of 5-hydroxytryptamine 1 receptor using [3H]-5-HT as the radioligand.
Experiment [6] concerns the target 5-hydroxytryptamine receptor 4 (Cavia porcellus). Kind of experiment: Binding affinity for 5-hydroxytryptamine 4 receptor in guinea pig was determined by guinea pig striatum binding assay.
Experiment [7] can be described thus: Concentration required for inhibition of 5-hydroxytryptamine 3 receptor using [3H]GR-65630 as the radioligand.
For experiment [8], the target named is 5-hydroxytryptamine receptor 4 (Rattus norvegicus) (UniProt Q62758). Kind of experiment: Effective concentration required towards 5-hydroxytryptamine 4 receptor in rat tunica muscularis mucosae.
Experiment [9] relates to Oryctolagus cuniculus. As to the kind of experiment: Effective dose required for restoring normal motility after i.v. administration. The note with it: iv. Format: functional, Canis lupus familiaris.
In experiment [10] the test system is Oryctolagus cuniculus. As to the kind of experiment: Effective concentration required for restoring normal motility after i.v. administration. Type of experiment: functional, organism-based, Canis lupus familiaris.
The test system of experiment [11] is Canis familiaris. As to the kind of experiment: Tested for inhibition of cisplatin-induced emesis in dog after i.g. administration. The note with it: Canis lupus familiaris, po; read-out: ID50 (the source's name).

In general, IC50 refers to the concentration needed to halve the response being measured. Read a low IC50 as higher potency. One may read the Ki as a dissociation constant, usually derived from enzyme kinetics or from competition with a known ligand. A high value points to weaker binding.

5-hydroxytryptamine receptor 4 (Rattus norvegicus), sequence (Q62758 whole entry, looked up): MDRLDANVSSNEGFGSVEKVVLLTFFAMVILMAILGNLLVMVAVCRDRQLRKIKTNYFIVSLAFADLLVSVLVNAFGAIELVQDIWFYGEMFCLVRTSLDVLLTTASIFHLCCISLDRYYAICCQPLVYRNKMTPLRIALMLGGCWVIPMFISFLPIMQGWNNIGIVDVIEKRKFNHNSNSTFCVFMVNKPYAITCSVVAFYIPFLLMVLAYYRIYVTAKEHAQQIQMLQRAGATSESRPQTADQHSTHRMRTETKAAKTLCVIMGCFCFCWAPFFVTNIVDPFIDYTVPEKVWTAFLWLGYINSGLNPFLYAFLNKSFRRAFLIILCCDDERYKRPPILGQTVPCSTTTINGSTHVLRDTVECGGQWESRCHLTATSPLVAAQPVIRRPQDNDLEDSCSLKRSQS

Turning to `COc1cc(N)c(Cl)cc1C(=O)NC1C2CC3CC1CN(C3)C2` (stereo in doubt; 9a), the IC50 in experiment [1] was over 10000 nM; in experiment [2], over 10000 nM; in experiment [3] it was 6400 nM; in experiment [4], over 10000 nM; in experiment [5], over 10000 nM; in experiment [7], 672 nM. The Ki in experiment [6] is over 500 nM. This compound also registered an EC50 in experiment [8] of 538 nM.

For `COc1cc(N)c(Cl)cc1C(=O)NC1C2CC3CC1CN(C3)C2` (stereo in doubt; 9b), the IC50 in experiment [1] is over 10000 nM; in [3], over 10000 nM; in experiment [7], 18 nM. Moreover, in experiment [6], the affinity corresponds to a Ki of 57 nM. Also, the EC50 in experiment [8] stood at 262 nM.

As for `COc1cc(N)c(Cl)cc1C(=O)NCC1C2CC3CC1CN(C3)C2` (stereo in doubt; 9c), the IC50 in experiment [1] was over 10000 nM; in experiment [2] it was over 10000 nM; in [3], over 10000 nM; in experiment [4] it was over 10000 nM; in [5], over 10000 nM; in [7], 3.5 nM. Also, the ED50 came out at 0.62 mg/kg in [9] and 0.3 mg/kg in [11]. Moreover, the EC50 in experiment [10] stood at 0.03 mg/kg.
